# According to ChEMBL document CHEMBL1201862, “PubChem BioAssay data set” (2004):
# Activity calls are given as the source filed them.
# Columns and labels:
# [1] = target: T1, Dual specificity protein phosphatase 3 (Homo sapiens, UniProt P51452); test: SAR VHR1 Fluorescent Assay for In Vitro dose response studies. [Related pubchem assays (depositor defined):AID1654, AID1661, AID1878, AID1992, AID2004, AID2070, AID2085]; assay type: functional
# [2] = target: T2, Polyadenylate-binding protein 1 (Homo sapiens, UniProt P11940); test: PABP1 MLLE–PAM2 binding inhibitor potency, dose response, biochemical, fluorescence polarization, FITC-PAM2 peptide (AID 602259); assay type: functional; conditions: read-out: IC50_Mean
# T2 sequence (P11940 whole entry): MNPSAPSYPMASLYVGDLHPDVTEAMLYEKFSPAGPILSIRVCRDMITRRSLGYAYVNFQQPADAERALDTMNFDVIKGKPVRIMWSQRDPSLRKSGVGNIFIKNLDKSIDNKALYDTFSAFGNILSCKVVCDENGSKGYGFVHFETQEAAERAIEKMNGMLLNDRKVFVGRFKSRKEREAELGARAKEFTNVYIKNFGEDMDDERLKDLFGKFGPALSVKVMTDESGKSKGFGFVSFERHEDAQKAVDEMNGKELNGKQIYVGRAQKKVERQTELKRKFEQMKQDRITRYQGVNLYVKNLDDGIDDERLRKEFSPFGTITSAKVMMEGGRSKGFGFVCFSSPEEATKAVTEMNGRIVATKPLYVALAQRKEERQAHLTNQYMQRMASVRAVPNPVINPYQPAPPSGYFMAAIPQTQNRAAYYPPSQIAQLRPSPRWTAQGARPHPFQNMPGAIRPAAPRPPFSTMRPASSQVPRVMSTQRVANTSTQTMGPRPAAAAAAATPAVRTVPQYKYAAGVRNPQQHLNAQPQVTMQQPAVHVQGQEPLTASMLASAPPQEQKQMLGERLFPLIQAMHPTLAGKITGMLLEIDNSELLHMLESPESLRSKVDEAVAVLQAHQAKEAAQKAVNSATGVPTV
# [3] = target: T3, Tyrosine-protein phosphatase non-receptor type 7 (Homo sapiens, UniProt P35236); test: redox-dependent HePTP inhibition, mechanism study, biochemical, fluorescence (AID 2068); assay type: functional
# T3 sequence (P35236 whole entry): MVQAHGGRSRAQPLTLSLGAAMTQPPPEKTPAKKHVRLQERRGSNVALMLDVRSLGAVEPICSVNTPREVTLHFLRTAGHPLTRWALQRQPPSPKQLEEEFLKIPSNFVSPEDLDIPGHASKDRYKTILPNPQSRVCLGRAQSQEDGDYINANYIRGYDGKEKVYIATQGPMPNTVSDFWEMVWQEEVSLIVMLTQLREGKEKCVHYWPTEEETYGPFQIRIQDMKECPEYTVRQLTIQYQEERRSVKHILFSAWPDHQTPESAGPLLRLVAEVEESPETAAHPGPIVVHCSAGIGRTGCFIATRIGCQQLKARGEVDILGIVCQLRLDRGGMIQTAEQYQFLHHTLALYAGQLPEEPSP
# [4] = target: Dual specificity protein phosphatase 6 (Rattus norvegicus, UniProt Q64346); assay type: functional;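 also: confirmatory in vitro dose-response testing of MKP-3 inhibition; recombinant His-tagged MKP-3 made in E. coli BL21 with OMFP substrate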
# Chain of Dual specificity protein phosphatase 6 (Q64346 whole entry): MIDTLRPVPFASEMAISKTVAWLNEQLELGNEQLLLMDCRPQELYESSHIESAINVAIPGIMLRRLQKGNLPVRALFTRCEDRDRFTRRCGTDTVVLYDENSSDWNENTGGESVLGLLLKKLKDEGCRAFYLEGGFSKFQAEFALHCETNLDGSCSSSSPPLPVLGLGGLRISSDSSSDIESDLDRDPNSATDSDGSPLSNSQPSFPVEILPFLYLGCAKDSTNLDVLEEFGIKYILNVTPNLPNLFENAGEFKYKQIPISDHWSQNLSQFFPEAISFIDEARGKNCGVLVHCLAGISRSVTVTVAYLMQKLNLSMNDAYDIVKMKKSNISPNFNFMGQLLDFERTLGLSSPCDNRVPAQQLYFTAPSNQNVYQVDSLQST
# [5] = target: T2, Polyadenylate-binding protein 1; test: PABP1 MLLE–PAM2 interaction inhibitors, dose response, miRNA deadenylation inhibitor project, biochemical, fluorescence polarization, Cy5-PAM2 peptide, secondary (AID 602260); assay type: functional; conditions: read-out: IC50_Mean
# [6] = target: T1, Dual specificity protein phosphatase 3; test: SAR VHR1 absorbance Assay for In Vitro dose response studies. [Related pubchem assays (depositor defined):AID1654, AID1661, AID1878, AID1992, AID2004]
# [7] = target: T1, Dual specificity protein phosphatase 3; test: MOA VHR1 Fluorescent secondary assay for identification of redox-state modulating compounds. [Related pubchem assays (depositor defined):AID1654, AID1661, AID1878, AID1957]
# [8] = target: T4, Alkaline phosphatase, tissue-nonspecific isozyme (Homo sapiens, UniProt P05186); test: inhibition of tissue-nonspecific alkaline phosphatase – biochemical, dose response (AID 488882); assay type: functional
# T4 sequence (P05186 whole entry): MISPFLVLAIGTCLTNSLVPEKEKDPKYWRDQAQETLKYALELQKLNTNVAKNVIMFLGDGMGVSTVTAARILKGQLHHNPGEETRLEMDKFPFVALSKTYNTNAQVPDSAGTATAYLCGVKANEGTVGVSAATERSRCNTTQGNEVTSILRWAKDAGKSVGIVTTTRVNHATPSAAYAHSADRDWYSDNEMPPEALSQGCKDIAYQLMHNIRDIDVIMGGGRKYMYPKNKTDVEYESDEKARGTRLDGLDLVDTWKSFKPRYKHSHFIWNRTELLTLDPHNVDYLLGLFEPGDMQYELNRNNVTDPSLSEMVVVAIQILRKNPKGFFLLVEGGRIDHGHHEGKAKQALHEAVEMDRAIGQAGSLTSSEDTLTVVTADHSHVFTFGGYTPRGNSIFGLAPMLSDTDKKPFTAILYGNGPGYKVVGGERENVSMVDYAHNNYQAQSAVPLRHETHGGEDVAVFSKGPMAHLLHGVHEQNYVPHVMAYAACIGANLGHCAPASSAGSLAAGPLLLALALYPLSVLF
# [9] = target: Intestinal-type alkaline phosphatase (Mus musculus, UniProt P24822); test: PubChem AID 488874; assay type: functional
# Chain of Intestinal-type alkaline phosphatase (Mus musculus, UniProt P24822) (P24822 whole entry): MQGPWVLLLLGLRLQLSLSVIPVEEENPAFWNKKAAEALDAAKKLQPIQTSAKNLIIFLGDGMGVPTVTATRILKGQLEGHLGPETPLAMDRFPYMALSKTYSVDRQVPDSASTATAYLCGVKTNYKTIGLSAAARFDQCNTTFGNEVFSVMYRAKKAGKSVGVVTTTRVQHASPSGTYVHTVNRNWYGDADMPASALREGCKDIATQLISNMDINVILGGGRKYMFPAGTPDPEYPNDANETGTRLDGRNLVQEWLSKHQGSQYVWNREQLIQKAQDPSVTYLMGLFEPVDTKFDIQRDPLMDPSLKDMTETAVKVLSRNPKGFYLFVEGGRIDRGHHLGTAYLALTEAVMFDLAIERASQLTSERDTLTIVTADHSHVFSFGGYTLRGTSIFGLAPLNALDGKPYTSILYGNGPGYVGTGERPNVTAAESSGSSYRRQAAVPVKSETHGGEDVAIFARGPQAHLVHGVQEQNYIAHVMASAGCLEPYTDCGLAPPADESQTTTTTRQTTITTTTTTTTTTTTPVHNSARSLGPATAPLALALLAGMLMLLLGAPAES
# Caspase-6 = target: T5, Caspase-6 (Homo sapiens, UniProt P55212); test: human caspase-6 inhibitors, dose response, biochemical, VEID-R110 fluorescence, cherry-pick (AID 720632)
# T5 sequence (P55212 whole entry): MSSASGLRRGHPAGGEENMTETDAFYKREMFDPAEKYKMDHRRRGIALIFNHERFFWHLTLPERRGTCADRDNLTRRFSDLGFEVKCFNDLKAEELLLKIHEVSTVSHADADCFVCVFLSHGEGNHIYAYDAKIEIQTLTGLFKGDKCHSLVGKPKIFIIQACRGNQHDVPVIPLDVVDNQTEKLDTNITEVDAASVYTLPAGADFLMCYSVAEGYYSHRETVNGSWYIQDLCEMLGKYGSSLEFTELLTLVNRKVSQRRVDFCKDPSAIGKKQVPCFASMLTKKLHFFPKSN
# Albumin = Albumin (Bos taurus, UniProt P02769); test: Counterscreen for inhibitors of T-cell receptor (TCR)-CD3 interaction: Fluorescence-based biochemical high throughput dose response assay to identify inhibitors of T-cell receptor (TCR)-CD3 interaction using a TAMRA-labeled BSA probe.; assay type: functional
# Chain of Albumin (P02769 whole entry): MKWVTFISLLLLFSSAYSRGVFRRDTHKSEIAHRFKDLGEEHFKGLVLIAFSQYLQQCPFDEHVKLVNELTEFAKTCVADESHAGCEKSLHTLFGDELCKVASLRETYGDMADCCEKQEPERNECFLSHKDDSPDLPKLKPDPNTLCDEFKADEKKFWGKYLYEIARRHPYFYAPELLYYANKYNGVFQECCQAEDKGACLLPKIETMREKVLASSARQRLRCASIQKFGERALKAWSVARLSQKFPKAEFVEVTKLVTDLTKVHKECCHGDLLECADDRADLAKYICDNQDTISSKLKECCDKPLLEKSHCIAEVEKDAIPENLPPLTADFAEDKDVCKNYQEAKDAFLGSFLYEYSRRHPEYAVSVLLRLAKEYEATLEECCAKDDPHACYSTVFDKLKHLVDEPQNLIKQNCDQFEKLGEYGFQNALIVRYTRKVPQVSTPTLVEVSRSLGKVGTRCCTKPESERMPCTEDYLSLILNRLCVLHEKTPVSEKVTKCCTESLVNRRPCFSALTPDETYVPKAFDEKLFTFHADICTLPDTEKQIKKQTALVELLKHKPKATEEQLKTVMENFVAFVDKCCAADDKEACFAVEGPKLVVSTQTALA
# [10] = target: FAD-linked sulfhydryl oxidase ALR (Homo sapiens, UniProt P55789); test: inhibitors of human ALR sulfhydryl oxidase, dose response, biochemical, H2O2 detection, luminescence, cherry-pick (AID 493248)
# Large T antigen = Large T antigen (Simian virus 40, UniProt P03070); assay type: functional, Betapolyomavirus macacae;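 also: Confirmatory-stage PubChem screen for compounds that inhibit SV40 T antigen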
# Chain of Large T antigen (P03070 whole entry): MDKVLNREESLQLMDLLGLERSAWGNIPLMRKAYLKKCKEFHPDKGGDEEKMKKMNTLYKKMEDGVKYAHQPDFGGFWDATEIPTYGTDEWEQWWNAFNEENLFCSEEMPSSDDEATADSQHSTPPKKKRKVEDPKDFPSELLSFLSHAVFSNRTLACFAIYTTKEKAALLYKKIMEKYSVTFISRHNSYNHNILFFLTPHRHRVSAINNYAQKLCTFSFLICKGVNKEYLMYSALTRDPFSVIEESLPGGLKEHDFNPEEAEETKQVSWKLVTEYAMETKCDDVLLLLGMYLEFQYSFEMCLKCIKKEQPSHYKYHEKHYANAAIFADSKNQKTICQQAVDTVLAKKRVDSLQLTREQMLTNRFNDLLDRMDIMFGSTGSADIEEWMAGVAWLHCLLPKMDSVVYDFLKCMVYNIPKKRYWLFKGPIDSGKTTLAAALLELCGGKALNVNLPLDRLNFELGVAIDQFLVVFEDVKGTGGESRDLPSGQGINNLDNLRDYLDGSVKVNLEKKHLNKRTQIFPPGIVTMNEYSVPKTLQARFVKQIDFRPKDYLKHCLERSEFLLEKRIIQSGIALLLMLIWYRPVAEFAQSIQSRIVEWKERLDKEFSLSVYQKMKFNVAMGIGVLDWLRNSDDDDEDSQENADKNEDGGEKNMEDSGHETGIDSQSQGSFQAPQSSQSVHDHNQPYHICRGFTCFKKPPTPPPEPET
# Vero = Vero cell cytotoxicity, cytotoxicity control for flavivirus capping enzyme inhibitors (AID 588742); assay type: functional; conditions: Chlorocebus sabaeus
# [11] = HEp-2 cell cytotoxicity, dose response, cytotoxicity control for RSV inhibitor project, HTS (AID 2410); assay type: functional; conditions: human respiratory syncytial virus
# [12] = target: T6, Intestinal-type alkaline phosphatase (Homo sapiens, UniProt P09923); test: human IAP inhibitors, dose response, biochemical, luminescent, uHTS hits, set 2 (AID 488793); assay type: functional
# T6 sequence (P09923 whole entry): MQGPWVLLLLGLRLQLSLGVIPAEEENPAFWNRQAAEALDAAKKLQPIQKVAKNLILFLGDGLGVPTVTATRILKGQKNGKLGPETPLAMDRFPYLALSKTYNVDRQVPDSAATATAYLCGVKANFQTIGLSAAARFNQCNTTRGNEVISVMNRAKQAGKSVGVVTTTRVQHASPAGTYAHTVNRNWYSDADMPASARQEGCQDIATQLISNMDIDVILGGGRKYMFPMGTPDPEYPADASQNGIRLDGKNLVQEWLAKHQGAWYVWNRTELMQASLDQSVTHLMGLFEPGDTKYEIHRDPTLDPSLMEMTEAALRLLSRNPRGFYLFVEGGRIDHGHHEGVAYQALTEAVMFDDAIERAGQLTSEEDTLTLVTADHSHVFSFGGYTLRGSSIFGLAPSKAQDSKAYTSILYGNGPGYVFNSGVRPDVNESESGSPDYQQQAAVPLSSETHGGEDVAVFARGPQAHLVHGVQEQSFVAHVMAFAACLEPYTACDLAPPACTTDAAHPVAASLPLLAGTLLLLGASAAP
# [13] = target: T7, Histone-lysine N-methyltransferase NSD2 (Homo sapiens, UniProt O96028); assay type: biochemical
# T7 sequence (O96028 whole entry): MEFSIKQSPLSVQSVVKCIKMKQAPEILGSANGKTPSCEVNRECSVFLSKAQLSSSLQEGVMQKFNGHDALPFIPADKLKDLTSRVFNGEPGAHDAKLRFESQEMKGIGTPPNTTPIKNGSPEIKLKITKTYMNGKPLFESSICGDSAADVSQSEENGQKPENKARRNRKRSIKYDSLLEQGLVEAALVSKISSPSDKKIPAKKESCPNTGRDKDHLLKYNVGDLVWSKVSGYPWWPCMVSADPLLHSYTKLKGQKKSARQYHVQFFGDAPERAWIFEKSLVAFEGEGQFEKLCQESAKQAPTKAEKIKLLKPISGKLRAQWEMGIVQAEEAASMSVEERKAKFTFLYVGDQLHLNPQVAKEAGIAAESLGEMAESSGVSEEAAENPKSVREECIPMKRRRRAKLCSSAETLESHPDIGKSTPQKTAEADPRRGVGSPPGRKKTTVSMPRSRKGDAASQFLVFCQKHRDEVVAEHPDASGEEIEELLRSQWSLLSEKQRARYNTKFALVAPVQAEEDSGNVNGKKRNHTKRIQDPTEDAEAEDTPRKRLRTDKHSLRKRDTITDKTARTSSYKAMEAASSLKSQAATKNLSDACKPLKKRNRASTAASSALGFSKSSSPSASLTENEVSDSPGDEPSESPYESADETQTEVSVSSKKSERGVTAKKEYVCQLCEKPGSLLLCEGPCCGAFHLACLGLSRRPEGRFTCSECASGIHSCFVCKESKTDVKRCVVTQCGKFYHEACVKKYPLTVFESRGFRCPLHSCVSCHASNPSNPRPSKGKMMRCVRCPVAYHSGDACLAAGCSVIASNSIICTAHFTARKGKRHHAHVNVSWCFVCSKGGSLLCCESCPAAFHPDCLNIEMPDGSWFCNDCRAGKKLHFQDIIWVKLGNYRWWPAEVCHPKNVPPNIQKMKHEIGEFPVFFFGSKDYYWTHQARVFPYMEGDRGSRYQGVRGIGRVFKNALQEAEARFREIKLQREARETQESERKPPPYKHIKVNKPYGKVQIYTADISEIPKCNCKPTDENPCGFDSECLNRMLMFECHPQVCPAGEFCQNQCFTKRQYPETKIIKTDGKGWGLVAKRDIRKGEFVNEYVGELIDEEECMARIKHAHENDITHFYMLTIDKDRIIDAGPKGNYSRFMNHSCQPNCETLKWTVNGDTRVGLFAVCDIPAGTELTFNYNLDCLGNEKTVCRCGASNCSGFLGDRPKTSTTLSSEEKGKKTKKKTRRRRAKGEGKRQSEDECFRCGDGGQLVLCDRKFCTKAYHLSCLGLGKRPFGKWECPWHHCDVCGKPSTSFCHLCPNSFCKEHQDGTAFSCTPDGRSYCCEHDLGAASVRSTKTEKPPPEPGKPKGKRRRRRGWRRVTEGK
# [14] = target: T6, Intestinal-type alkaline phosphatase; test: Dose Response confirmation of uHTS hits from a small molecule inhibitors of human intestinal alkaline phosphatase via a luminescent assay. [Related pubchem assays (depositor defined):AID2544, AID2574]; assay type: functional
# HEK293 [15] = test: HEK cell cytotoxicity by LDH release, dose response, cytotoxicity control for IDE activator project, fluorescence, HEK cells (AID 588440); assay type: functional, cell-based; conditions: Homo sapiens;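 also: cytotoxicity by LDH release measuring loss of membrane integrity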
# ORF 73 = ORF 73 (Human herpesvirus 8, UniProt O40947); test: inhibitors of C-LANA binding to LBS DNA, dose response, biochemical, fluorescence polarization, cherry-picked samples (AID 504725); set-up: species or system Human gammaherpesvirus 8;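 also: fluorescence polarization of a labeled DNA duplex reporting LANA DNA binding; potency is for inhibitors that block LANA binding to the DNA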
# Chain of ORF 73 (O40947 whole entry): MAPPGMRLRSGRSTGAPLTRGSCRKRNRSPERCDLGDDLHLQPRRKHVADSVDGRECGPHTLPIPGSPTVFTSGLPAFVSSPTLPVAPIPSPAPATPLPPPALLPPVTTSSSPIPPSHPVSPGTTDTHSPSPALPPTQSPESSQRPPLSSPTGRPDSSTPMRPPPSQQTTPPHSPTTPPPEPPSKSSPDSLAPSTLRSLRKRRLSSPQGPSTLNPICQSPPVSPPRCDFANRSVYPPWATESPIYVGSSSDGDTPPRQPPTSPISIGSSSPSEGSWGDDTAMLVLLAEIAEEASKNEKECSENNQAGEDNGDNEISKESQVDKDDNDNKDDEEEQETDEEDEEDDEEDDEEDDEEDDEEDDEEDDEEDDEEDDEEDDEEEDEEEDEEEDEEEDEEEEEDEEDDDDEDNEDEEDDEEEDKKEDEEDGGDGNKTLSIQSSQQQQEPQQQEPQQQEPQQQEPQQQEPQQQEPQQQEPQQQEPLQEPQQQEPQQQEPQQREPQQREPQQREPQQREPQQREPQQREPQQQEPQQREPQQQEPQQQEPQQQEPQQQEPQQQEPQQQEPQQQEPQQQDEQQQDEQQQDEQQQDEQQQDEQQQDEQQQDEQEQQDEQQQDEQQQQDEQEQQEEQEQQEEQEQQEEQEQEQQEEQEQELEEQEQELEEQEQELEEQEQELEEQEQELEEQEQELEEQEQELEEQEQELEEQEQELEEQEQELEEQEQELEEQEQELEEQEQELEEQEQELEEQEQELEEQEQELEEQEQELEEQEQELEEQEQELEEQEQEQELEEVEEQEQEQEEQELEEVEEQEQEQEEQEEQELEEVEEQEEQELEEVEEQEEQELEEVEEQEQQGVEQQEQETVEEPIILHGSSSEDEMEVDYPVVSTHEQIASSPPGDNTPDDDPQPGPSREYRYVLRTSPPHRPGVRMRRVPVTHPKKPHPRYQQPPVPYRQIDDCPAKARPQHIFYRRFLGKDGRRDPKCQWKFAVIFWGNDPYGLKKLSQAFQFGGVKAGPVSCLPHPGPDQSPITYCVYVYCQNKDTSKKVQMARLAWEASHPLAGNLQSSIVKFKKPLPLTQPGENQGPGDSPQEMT
# Beta Lactamase = Beta Lactamase (Pseudomonas aeruginosa, UniProt Q932Y6); test: beta-lactamase reporter inhibitor potency, dose response, artefact control for TLR9-MyD88 binding inhibitor project, BLA reporter cells, FRET fluorescence (AID 588341); assay type: cell-based;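 also: cell based assay in CHO-K1 cells stably expressing beta-lactamase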
# Chain of Beta Lactamase (Q932Y6 whole entry): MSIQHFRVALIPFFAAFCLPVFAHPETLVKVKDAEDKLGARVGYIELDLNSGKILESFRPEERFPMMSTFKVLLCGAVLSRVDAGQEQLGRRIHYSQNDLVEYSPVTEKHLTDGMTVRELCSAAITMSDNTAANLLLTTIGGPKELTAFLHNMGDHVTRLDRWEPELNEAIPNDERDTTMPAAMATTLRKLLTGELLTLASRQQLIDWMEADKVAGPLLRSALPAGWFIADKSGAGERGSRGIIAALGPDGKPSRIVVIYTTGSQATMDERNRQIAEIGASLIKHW
# [16] = target: UDP-galactopyranose mutase (Mycobacterium tuberculosis, UniProt P9WIQ1); test: Inhibitors of Mycobacterium tuberculosis UDP-galactopyranose mutase (UGM) enzyme Measured in Biochemical System Using Plate Reader - 2105-02_Inhibitor_Dose_CherryPick_Activity. [Related pubchem assays (depositor defined):AID504439]
# CHO = test: cytotoxicity in TLR9-MyD88 CHO cells, dose response, cytotoxicity control for TLR9-MyD88 binding inhibitor project, cell-based, luminescence (AID 588339); assay type: functional, hamster; conditions: Cricetulus griseus;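 also: CHO cells stably coexpressing TLR9 and MyD88 fusions from primary screen; compound exposure lasted 48 hours before viability readout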
# Keap1/Nrf2 = Keap1/Nrf2 (Homo sapiens, UniProt Q14145); test: Keap1-Nrf2 protein-protein interaction inhibitors, dose response, biochemical, fluorescence polarization, cherry-picked samples (AID 588683)
# Insulin-degrading enzyme [17] = target: T8, Insulin-degrading enzyme (Homo sapiens, UniProt P14735); test: activators of endogenous IDE in HEK cells, dose response, cell-based, fluorescence polarization (AID 588439); assay type: functional
# T8 sequence (P14735 whole entry): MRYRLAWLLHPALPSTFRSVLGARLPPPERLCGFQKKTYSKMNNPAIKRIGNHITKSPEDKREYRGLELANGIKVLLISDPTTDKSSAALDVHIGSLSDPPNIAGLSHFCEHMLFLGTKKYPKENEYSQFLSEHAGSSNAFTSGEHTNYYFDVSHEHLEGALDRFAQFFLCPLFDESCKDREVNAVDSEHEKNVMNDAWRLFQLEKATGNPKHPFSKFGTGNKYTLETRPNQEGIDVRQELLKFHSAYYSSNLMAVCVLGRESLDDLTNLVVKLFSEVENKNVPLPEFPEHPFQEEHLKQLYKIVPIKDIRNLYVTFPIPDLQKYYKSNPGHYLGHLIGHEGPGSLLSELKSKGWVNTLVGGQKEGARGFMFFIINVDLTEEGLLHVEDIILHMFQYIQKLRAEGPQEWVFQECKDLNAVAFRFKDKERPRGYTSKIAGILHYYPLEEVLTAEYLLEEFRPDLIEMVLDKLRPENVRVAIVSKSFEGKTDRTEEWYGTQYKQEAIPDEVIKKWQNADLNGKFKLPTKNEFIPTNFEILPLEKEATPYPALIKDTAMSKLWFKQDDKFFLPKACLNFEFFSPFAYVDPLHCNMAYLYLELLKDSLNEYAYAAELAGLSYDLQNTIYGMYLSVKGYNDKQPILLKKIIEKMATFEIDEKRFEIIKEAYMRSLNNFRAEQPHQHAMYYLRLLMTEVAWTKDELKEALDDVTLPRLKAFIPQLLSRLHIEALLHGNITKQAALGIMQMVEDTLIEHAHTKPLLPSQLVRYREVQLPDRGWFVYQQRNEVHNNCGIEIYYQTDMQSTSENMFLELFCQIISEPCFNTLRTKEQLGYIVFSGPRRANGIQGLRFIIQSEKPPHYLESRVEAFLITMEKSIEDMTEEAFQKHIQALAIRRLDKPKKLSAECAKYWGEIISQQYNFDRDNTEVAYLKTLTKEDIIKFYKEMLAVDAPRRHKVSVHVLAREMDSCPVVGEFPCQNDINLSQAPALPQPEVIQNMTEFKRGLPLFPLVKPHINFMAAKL
# HEK293 [18] = test: optical interference in Abeta FP readout, dose response, artefact control for IDE activator project, biochemical, fluorescence polarization (AID 588442); assay type: functional, cell-based; conditions: Homo sapiens
# Insulin-degrading enzyme [19] = target: T8, Insulin-degrading enzyme; test: activators of recombinant IDE enzyme, dose response, counter-screen for IDE activator project, biochemical, fluorescence polarization (AID 588681)
# T1 sequence (P51452 whole entry): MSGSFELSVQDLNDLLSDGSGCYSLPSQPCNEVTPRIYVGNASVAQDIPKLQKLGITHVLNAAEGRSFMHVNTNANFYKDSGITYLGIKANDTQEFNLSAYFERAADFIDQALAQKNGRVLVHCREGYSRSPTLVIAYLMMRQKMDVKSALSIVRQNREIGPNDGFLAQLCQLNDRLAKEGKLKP
structure (smiles),measurement,setting,value
COc1cc(C(=S)N2CCC(C)CC2)ccc1O,IC50,[1],30.4 µM (active)
same,IC50,[2],> 66 µM (inactive)
same,IC50,[3],1.61 µM (active)
same,IC50,[4],> 100 µM (inactive)
same,IC50,[5],> 66 µM (inactive)
same,IC50,[6],> 100 µM (inactive)
same,IC50,[7],1.21 µM (active)
O=C1Nc2ccccc2/C1=N/N=C/c1ccc(O)c(O)c1,IC50,[8],3.29 µM (active)
same,IC50,[9],4.79 µM (active)
same,AC50,Caspase-6,0.226 µM (active)
same,IC50,Albumin,> 94.1 µM (inactive)
same,AC50,[10],0.83 µM (active)
same,IC50,Large T antigen,3.29 µM (active)
same,CC50,Vero,> 40 µM (active)
same,CC50,[11],22.4 µM (active)
same,IC50,[12],7.63 µM (active)
same,AC50,[13],0.407 µM (active)
same,IC50,[14],7.95 µM (active)
CC(C)CCN1C(=O)c2cccc3c(N)ccc(c23)C1=O,IC50,HEK293 [15],> 89.3 µM (inactive)
same,AC50,ORF 73,5.98 µM (active)
same,IC50,Beta Lactamase,4.77 µM (active)
same,AC50,[16],2.84 µM (active)
same,IC50,CHO,> 49.8 µM (inactive)
same,AC50,Keap1/Nrf2,1.71 µM (active)
same,EC50,Insulin-degrading enzyme [17],> 54.7 µM (inactive)
same,EC50,HEK293 [18],13.2 µM (inactive)
same,EC50,Insulin-degrading enzyme [19],> 54.7 µM (inactive)
